Experimental data from patent EP4140481A1, “PROTEIN-OLIGOMER BINDING AGENTS AND THERAPEUTIC USES THEREOF” (Galyan Bio, Inc., priority 2021, dated 2023).
“Also recorded” adds a separate entry of the source.

What was measured:
mHTT = molecular target: T1, mHTT (Homo sapiens, UniProt P42858); assay: mHTT levels in striatal cells (immunocytochemistry); format: cell-based, mouse; details: STHdh 111/111; MW1 primary antibody; non-linear regression; read-out: EC 50 value for mHTT reduction
T1 construct: host or cells: ST HDH Q111/111 mouse striatal cell line (knock-in locus)
T1 sequence (P42858 with tags, fused parts or gaps with the stated changes): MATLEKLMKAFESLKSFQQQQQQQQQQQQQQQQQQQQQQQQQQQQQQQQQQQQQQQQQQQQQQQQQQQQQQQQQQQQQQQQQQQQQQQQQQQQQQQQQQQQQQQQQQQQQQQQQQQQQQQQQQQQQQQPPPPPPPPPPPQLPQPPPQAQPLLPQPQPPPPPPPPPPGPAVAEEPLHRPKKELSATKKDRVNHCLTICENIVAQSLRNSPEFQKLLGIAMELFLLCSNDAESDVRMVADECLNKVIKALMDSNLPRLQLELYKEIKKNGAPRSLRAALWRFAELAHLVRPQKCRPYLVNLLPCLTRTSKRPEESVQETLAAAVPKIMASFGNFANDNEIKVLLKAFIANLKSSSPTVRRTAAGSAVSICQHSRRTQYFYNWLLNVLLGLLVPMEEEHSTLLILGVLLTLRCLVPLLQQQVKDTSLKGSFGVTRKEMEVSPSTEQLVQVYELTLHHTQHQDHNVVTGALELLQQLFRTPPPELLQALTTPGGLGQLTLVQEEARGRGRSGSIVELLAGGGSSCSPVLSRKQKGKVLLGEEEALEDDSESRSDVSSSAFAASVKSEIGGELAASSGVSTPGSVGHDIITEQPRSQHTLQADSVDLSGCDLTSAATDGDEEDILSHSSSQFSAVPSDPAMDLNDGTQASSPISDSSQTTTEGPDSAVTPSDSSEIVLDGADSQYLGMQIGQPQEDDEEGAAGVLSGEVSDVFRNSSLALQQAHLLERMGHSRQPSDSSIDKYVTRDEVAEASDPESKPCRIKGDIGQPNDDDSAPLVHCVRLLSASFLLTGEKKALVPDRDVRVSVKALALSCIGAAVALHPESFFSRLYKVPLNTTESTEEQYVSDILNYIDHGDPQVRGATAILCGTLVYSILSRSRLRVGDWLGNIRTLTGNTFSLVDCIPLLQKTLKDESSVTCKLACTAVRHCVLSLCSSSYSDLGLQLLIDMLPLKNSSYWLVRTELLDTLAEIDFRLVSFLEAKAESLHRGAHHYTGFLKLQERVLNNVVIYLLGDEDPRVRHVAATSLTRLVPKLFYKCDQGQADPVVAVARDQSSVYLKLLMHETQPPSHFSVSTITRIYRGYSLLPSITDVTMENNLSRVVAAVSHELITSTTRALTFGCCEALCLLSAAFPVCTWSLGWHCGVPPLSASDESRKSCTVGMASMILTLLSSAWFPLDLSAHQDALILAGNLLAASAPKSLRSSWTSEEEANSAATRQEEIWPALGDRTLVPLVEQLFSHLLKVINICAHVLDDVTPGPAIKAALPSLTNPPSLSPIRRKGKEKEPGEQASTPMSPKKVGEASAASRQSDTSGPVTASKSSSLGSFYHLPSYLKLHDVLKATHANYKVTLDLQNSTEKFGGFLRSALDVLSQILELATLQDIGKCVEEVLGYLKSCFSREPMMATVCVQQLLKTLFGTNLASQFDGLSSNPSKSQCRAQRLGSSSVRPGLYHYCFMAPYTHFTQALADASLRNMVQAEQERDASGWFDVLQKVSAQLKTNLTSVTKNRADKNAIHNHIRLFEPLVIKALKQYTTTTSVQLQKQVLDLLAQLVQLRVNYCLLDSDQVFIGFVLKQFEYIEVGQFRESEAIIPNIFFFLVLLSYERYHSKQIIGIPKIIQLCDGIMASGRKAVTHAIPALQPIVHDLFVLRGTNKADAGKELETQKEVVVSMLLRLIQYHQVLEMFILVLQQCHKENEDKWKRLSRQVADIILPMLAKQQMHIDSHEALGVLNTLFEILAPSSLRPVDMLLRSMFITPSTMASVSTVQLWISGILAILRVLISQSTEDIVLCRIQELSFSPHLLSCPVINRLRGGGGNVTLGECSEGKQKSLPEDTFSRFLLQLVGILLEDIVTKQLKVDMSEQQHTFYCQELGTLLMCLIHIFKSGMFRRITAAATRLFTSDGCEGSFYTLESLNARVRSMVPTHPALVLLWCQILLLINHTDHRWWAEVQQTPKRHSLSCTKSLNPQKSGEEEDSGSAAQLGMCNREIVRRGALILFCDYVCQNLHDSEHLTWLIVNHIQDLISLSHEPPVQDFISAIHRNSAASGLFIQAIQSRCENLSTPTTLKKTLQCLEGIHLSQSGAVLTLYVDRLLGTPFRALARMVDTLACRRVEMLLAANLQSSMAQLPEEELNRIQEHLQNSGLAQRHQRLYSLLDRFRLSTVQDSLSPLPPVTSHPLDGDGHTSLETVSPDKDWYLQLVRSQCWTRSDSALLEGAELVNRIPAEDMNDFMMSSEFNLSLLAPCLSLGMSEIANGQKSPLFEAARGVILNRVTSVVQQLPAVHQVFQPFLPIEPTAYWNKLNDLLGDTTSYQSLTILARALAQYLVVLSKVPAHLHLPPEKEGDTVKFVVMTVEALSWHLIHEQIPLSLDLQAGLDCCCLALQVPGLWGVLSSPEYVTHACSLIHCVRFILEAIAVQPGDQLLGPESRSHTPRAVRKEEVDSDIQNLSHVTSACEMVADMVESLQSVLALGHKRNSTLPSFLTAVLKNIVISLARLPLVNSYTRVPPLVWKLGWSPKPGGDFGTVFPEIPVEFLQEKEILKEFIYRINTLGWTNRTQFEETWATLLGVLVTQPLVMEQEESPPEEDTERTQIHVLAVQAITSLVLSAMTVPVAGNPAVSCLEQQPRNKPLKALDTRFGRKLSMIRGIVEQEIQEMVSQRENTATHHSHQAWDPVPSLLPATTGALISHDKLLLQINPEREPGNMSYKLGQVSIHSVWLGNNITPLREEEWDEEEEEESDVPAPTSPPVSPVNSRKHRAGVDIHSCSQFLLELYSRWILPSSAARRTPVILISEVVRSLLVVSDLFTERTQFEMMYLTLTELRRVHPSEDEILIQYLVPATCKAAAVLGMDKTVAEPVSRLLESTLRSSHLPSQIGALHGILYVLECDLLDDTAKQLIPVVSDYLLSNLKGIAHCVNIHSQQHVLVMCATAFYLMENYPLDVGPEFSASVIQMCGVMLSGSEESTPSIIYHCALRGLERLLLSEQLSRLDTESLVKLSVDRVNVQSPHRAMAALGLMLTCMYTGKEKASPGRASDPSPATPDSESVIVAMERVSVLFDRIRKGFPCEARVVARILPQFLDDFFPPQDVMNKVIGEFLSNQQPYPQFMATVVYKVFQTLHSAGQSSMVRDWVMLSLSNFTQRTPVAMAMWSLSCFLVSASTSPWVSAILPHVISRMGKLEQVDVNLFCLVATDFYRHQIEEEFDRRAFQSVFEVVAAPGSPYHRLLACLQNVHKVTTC

STHdh 111/111 cells = assay: Gene expression (Nanostring nCounter Mouse Neuropathology Panel); format: cell-based
Protocol: (§1) Gene expression of certain transcripts of interest were measured using Nanostring Technology. […] Some STHdh 7/7 and STHdh 111/111 cell samples were not heat shocked and some wells were treated with Compound 22 at the indicated concentration on for 48 hours (Table 17). Some STHdh 7/7 and STHdh 111/111 cell samples were heat shocked for 3 hours some wells were treated with Compound 22 at the indicated concentration on for 48 hours (Table 18). Cells are washed with PBS, trypsinised, and gathered in a 15 ml falcon tube. After a short spin down for 3 minutes at 300 g, the cell pellet was washed with PBS once, before it was frozen down in liquid nitrogen. RNA was extracted with a standard protocol. The nCounter® Mouse Neuropathology Panel (Nanostring, Seattle) was used for gene expression analysis according to the manufacturer's protocols. Table 17. Cell samples that were not subject to heat shock treatment

STHdh 7/7 cells = assay: as above; format: cell-based; details: 10 µM or 20 µM, 48 h, in comparison to untreated cells
Protocol: as §1

[1] = Pharmacokinetics of Compound 22 in plasma and brain (UHPLC-TOF); format: in vivo, male CD1 mice
Protocol: Compound 22 pharmacokinetic properties was measured in three male CD1 mice at several timepoints. Compound 22 was dissolved in 10% DMSO, 10%, cremaphor, and 80% saline. The tested dose was 33.3 mg/kg body weight. Brain tissue was homogenized and protein precipitated with acetonitrile. […] As such, Compound 22 was selected for testing in an animal model of HD the R6/2 model. As described below, Compound 22 and its analogs were further tested for their effects on striatal cell viability and effects of mHTT levels.

[2] = treated STHdh 111/111 in comparison to untreated STHdh 111/111

CCc1c(C)[nH]c2ccc(C(=O)NCCN(CC)CC)cc12 [Compound 4, N-(2-(diethylamino)ethyl)-3-ethyl-2-methyl-1H-indole-5-carboxamide]
EC50 (mHTT): 130 nM

Cc1[nH]c2ccc(C(=O)NCCN(C(C)C)C(C)C)cc2c1C [Compound 22]
Genes associated with the autophagy pathway (STHdh 111/111 cells; 10 µM or 20 µM, 48 h, in comparison to untreated cells): upregulated | NGFR expression increase (STHdh 111/111 cells; paragraph on the KCNA1 gene (Figure 25 (E)), treated versus untreated STHdh 111/111): 68% | Slc32a1 expression upregulation (STHdh 111/111 cells; treated STHdh 111/111 (Q111-10) in comparison to untreated STHdh 111/111): 12 fold | Olig2 expression (STHdh 111/111 cells; [2]): doubled | Rasgrp1 expression downregulation (STHdh 111/111 cells; [2]): 29% | NGFR expression increase (STHdh 111/111 cells; treated STHdh 111/111 in comparison to untreated STHdh 111/111 (Figure 25 (D))): 60% | Genes associated with the autophagy pathway (STHdh 7/7 cells): upregulated | penetration of the blood brain area in vivo ([1]; 33.3 mg/kg body weight, plasma and brain): penetrates the blood brain area; also recorded: can penetrate the blood brain area in vivo | Blood Brain Barrier Penetrability AUCbrain/AUCplasma ([1]; Compound 22 in mice): AUCbrain/AUCplasma = 2.24 | Cmax ([1]; male, CD1, mouse, brain, ip, 33.3 mg/kg body weight, i.p. administration and formulation, read-out: Brain exposure Cmax): 5.56 µM
